Data from paper PMC7674337, “Phylogenetic analysis of plant multi-domain SEC14-like phosphatidylinositol transfer proteins and structure–function properties of PATELLIN2” (Plant Molecular Biology, 2020).

Molecular target: T1, PATL2 (PATELLIN2; StrepII-PATL2) (Arabidopsis thaliana, UniProt Q56ZI2)
T1 construct: full-length CDS from Col-0 root cDNA; StrepII-tagged (pET-52b(+)), E. coli BL21(DE3) pLysS; Strep-Tactin purified
T1 sequence (Q56ZI2 2-683): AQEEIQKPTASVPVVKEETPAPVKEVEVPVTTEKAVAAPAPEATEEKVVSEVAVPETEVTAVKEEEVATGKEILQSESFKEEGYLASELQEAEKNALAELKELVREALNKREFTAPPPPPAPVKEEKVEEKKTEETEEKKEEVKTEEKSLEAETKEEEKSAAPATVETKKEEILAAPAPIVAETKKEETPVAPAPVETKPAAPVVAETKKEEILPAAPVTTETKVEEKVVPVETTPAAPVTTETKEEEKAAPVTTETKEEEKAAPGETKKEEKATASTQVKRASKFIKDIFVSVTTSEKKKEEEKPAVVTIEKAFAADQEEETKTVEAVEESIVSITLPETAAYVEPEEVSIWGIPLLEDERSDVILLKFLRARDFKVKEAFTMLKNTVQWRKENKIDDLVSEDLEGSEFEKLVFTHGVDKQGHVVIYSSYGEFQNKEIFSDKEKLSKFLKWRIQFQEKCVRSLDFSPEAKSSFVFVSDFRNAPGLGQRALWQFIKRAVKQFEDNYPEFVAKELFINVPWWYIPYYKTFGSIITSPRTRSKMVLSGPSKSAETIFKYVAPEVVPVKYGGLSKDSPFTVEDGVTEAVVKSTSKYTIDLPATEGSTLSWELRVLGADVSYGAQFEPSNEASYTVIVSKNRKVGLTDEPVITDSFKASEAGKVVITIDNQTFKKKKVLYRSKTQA
Test: liposome co-sedimentation, immunoblot
Format: binding
Settings: PC/PE liposomes with 7% phosphoinositide; 25 mM Tris-HCl pH 7.5, room temperature

CCCCCCCC/C=C\CCCCCCCC(=O)OC[C@H](COP(=O)(O)O[C@@H]1[C@H](O)[C@H](O)[C@@H](O)[C@H](O)[C@H]1O)OC(=O)CCCCCCC/C=C\CCCCCCCC [PI, 1,2-dioleoyl-sn-glycero-3-phospho-(1′-myo-inositol)]
liposome co-sedimentation, immunoblot: a low amount of PATL2 protein was found in the liposome membrane fraction
